Results reported in patent US9029346B1, “Irreversible inhibitors of DNA polymerase beta” (The Johns Hopkins University, priority 2013, dated 2015).

Tests used:
[1] = system: mouse embryonic fibroblast cell lysates lyase activity; assay: Lyase (dRPase) activity of mouse embryonic fibroblast lysates on 3′-32P-15; assay type: biochemical; conditions: for Rate of product formation: inhibitor + (18, 50 μM), 32 μg protein
[2] = system: DU145 prostate cancer cells; assay type: cell-based; conditions: for DU145 cells surviving treatment: 40 μM, FIG. 13A
Method: DU 145 cells were obtained from the American Type Culture Collection (ATCC, HTB-81, Manassas, Va.) and maintained in RPMI 1640 culture medium (Sigma-Aldrich R8758, St. Louis, Mo.), supplemented with 10% fetal bovine serum (Sigma-Aldrich F6178, St. Louis, Mo.). Cultures were grown at 37° C. in a humidified atmosphere of 5% carbon dioxide without any antibiotics and subcultured when they reached confluence. For clonogenic survival analysis, the appropriate number of cells were grown in standard 6-well tissue culture dishes in the growth media (2 mL per well). After 2 days, the cells were treated with Pol β inhibitors (3a or 18) by addition of sterile stock solution in water directly to the growth media to the desired final concentrations. Cells were treated similarly with methyl methanesulfonate (MMS, Sigma-Aldrich, St. Louis, Mo.). For combined treatments, 18 was added to the cells first followed by MMS. The compounds remained present throughout the entire assay. Two weeks after the treatment, the cells were fixed and stained with 0.2% solution of crystal violet in 50% methanol. Colonies with ≧50 cells were then counted. All treatments were carried out in triplicate.
[…]. Consequently, DU145 cell survival was measured as a function of MMS concentration, without and with 18 at a concentration (20 μM) where the proinhibitor itself results in approximately 45% cell death. […] […].

[3] = Conversion of bisacetate proinhibitor to 3a in DU145 lysate (TLC analysis); assay type: in vitro ADME
[4] = system: DU145 lysate lyase activity; assay: Lyase activity of DU145 cell extracts (lysates) on 3′-32P-15
Method: The aliquots were kept on ice for 1 h before mixing with loading buffer (5 μL). The samples were analyzed by 20% denaturing PAGE and quantified using a phosphorimager.
Cells were harvested by mild trypsinzation. The cells were then washed three times with phosphate buffered saline. Cell pellets were suspended in 1× Passive Lysis Buffer (PBL, Promega Corporation, E1941, Madison, Wis.) at concentration of 1×10^7 cells per mL and frozen in aliquots at −80° C. Protein concentrations were determined by Bio-Rad protein assay dye (Bio-Rad, 500-0006, Hercules, Calif.) according to the manufacturer's protocol and using bovine serum albumin as a standard.

Pol β lyase activity = Pol β lyase activity (Homo sapiens, UniProt P06746); assay: Pol β lyase (dRPase) activity on 3′-32P-15 by gel electrophoresis
Method: The ability of 1a to inhibit Pol β's dRPase activity was examined using 3′-^32P-15 in which the oligonucleotide containing dRP was labeled.
The DNA substrate was added to the reaction following preincubation of 1a with Pol β and subsequent 100-fold dilution. The lyase reaction was monitored by gel electrophoresis.

[5] = system: Klenow fragment of DNA polymerase 1; assay: Klenow exo- strand displacement synthesis fluorescence assay (selectivity); assay type: biochemical, E. coli; conditions: 10 μM, same conditions as Pol β, FIG. 9
Method: […]. The volume of the solution in each well is approximately 400 μL. Pol β (final concentration, 10 nM) or Klenow exo-(final concentration 5 nM) is added and the measurement of the fluorescence is started immediately.
More than one dozen polymerases exist in a human cell. Because there is not access to each of these, the Klenow fragment of DNA polymerase 1 from E. coli was used as a primitive test of the inhibitor's (3a) selectivity. […]. However, the efficacy of the 1,4-dicarbonyl containing inhibitor (1a) was compromised by thiols, presumably due to nucleophilic addition (FIG. 10). […]

Pol β = Pol β (Homo sapiens, UniProt P06746); assay type: biochemical
Method: It is worth noting that the well should be full to obtain accurate fluorescence data (approximately 380 μL). […] To determine the polymerase activity in the presence of each inhibitor, a solution of 13 (3.8 μL, 5 μM) and dTTP (3.8 μL, 10 mM) were also added (to make final [13]=50 nM and 100 μM of dTTP). The plates were immediately placed in the microtiter plate reader and the measurements were recorded.
It is worth noting that the well should be full in order to get accurate fluorescence data (approximately 380 μL). The solutions of inhibitors (40×) in acetonitrile obtained after pentenyl deprotection (10 μL) were transferred to the wells containing Pol β and incubated for 20 min. To determine the polymerase activity of enzyme in the presence of each inhibitor, solutions of ternary complex 13 (3.8 μL, 5 μM) and dTTP (3.8 μL, 10 mM) were also added (to make final 50 nM of 13 and 100 μM of dTTP). The plates were placed immediately in the microtiter plate reader Cary Eclipse Varian and the measurements started.
The inhibitor solution (40×, 10 μL) was added to the first well and preincubated for 20 min. At this time, the same portion of inhibitor was added to the second well. […] Once the inhibitor was added to the fifth well, solutions of ternary complex 13 (3.8 pit, 5 μM) and dTTP (3.8 μL, 10 mM) were also added and the fluorescence measurement was started immediately.

In the case of COc1cc(Cl)c(/C=N/OC2C[C@H](n3cc(C)c(=O)[nH]c3=O)O[C@@H]2COP(=O)(O)OCC2CC(OC(C)=O)OC2OC(C)=O)c(Cl)c1O (stereo partly shown) [compound 18], the “Rate of product formation” value ([1]; Pol β - lysate) is reported as 5.5 ± 1.5 ×10^−1 % · min^−1, the “Rate of product formation” value ([1]; Pol β wt lysate) is reported as 9.2 ± 2.4 ×10^−1 % · min^−1 and the “reduction of lyase activity” value ([1]; Pol β- cell lysates, 18 at 50 μM) is reported as “less than 30%”. The “Rate of product formation” value ([1]; Pol β/λ - lysate) was 11.0 ± 4.0 ×10^−1 % · min^−1, the “Rate of product formation” value ([1]; Pol λ - lysate) was 9.1 ± 2.3 ×10^−1 % · min^−1 and the “Rate of product formation” value ([1]; Pol λ wt lysate, aliquots at 2, 5, 10 min) was 12.4 ± 3.2 ×10^−1 % · min^−1. For the same compound, the “effect on lyase activity versus wild type cells” value ([1]; cells lacking Pol λ (Pol λ-), p=0.05) was “statistically indistinguishable”, the “effect on lyase activity versus Pol β- cells” value ([1]; double knock-out (Pol β-/Pol λ-) cells) was “within experimental error” and the “reduction of the rate of the lyase reaction” value ([1]; lysates from wild type cells, 18 at 50 μM) was about 2 fold. The “MMS concentration at and above which clear potentiation of cytotoxicity is seen” value [2] was at least 0.2 mM, the cell death ([2]; 20 μM, proinhibitor alone) was “approximately 45%” and the “DU145 cells surviving treatment” value [2] was “approximately 0.01%”. For the same compound, the “time for conversion of bisacetate to 3a” value [3] was at most 5 min, the “inhibition of DU145 lysate lyase activity” value ([4]; 150 μM) was “Almost complete inhibition” and the “preincubation time by which inactivation was complete” value ([4]; 18 at 50 μM, preincubation varied 5-60 min) was at most 15 min. The “lyase activity inhibition compared with 3a” value ([4]; 1 h preincubation, FIG. 11) was “significantly greater” and the “effect on Pol β lyase activity” value (Pol β lyase activity) was “had no effect”.
For COc1cc(Cl)c(/C=N/OC2C[C@H](n3cc(C)c(=O)[nH]c3=O)O[C@@H]2COP(=O)(O)OCC2CC(O)OC2O)c(Cl)c1O (stereo partly shown) [3a], the “effect on Klenow fragment's activity” value [5] was “no effect”, the “DU145 cells surviving treatment” value [2] was 12% and the lyase activity remaining ([4]; 150 μM) was “more than 30%”.
In the case of COc1cc(Cl)c(/C=N/OC2C[C@H](n3cc(C)c(=O)[nH]c3=O)O[C@@H]2COP(=O)(OC)OCCC=O)c(Cl)c1O (stereo partly shown) [compound 16], the “effect on Pol β lyase activity” value (Pol β lyase activity) is reported as “had no effect”.
With COc1cc(Cl)c(/C=N/OC2C[C@H](n3cc(C)c(=O)[nH]c3=O)O[C@@H]2COP(=O)(OC)OCC2CC(O)OC2O)c(Cl)c1O (stereo partly shown) [2a] the “effect on Pol β activity in strand displacement assay” value (Pol β) was “comparable inhibition activity as 1a”.
